Laboratory results as given in US20250085273A1, “NOVEL RAPID DRUG DISCOVERY FOR SEPSIS AND AGENTS FOR USE AS SEPSIS THERAPY” (priority 2023, published 2025).
Where two headings read alike, the source gives them in different places.

Experiments:
D2 receptor = D2 receptor (Homo sapiens, UniProt P14416); conditions: read-out: IC50 for D2 receptor; cited from earlier work
[1] = system: zebrafish exposed to P. aeruginosa LPS; assay: Model compound testing in the optimized zebrafish sepsis model (varying LPS dose ranges); type: in vivo, Danio rerio
Procedure: Three sources of LPS were evaluated: E. coli 0111:B4, P. aeruginosa Sigma L9143, and K. pneumoniae. E. coli 0111:B4 LPS was selected as the reference LPS used by Philip et al. (2017). P. aeruginosa LPS is commonly associated with infections in hospitals, accounting for an estimated 32,600 cases and resulting in an estimated 2,700 deaths in 2017 (CDC Report 2019). P. aeruginosa infections are also a common cause of sepsis in both patients with severe burns and immunocompromised patients. K. pneumoniae LPS has military relevance related to battlefield injury infections (Kiley et al., 2021). Initial range finding LC50 tests with larval zebrafish were conducted for each LPS strain at both 3-dpf and 5-dpf. […] (E. coli 0111:B4 was also tested at higher concentrations, 400, 800, and 1000 μg/mL due a lack of toxicity within the initial dose range.) Well plates were then covered with parafilm and placed into an incubator at 28.5° C. for 24 hours. After 6 and 24 hours, the plates were removed and scored for mortality, tail edema, and ROS production. The tail edema endpoint evaluates vascular leakage from caudal fin in response to LPS exposure (FIG. 2). ROS production was determined as described by Philip et al. (2017) by adding 2,7-dichloroflurescein diacetate (100 μM) to the wells containing the zebrafish larvae and incubating them in a 100% dark photoperiod incubator at 28.5° C. for one hour. Florescent images of the incubated zebrafish were then captured with a Keyence BZ-X710 fluorescent microscope using 10× objective with a GFP filter and fixed 1/15 second exposure for all imaging. […] Results from the LPS toxicity testing and endpoint screening were used to develop the optimized testing procedure through evaluation in selected model compounds, as described in the next section and in the results.
The optimized zebrafish sepsis model was evaluated against compounds previously shown to have efficacy in previous zebrafish sepsis models: fasudil, hydrocortisone, dexamethasone, and fisetin. Fasudil, an anti-vascular leakage compound (inhibitor of the RhoA/Rho-kinase pathway) was shown by Philip et al. (2017) to rescue zebrafish from LPS-induced mortality, ROS production, and tail fin edema. Fasudil also rescued LPS-induced vascular leakage in murine models of experimental sepsis (Li et al., 2010) and reduced acute lung injury in septic rats through inhibition of the Rho/ROCK signaling pathway (Wang et al., 2018). […] Endpoints evaluated with model compounds included mortality, tail edema, and ROS at 6- and 24-hours post exposure to varying dose ranges of LPS.
(§1) LC50s for the LPS tests were determined using the Trimmed Spearmen-Karber method (Hamilton et al., 1977). The tail edema and mortality data from the initial and confirmatory drug testing was analyzed using GraphPad Prism 9 using Fisher's Exact Test. Each drug treatment group was compared pairwise with the on-board positive control group on each test plate. Statistical significance was determined with values of p≤0.05. Neurological behavioral testing data was analyzed by Ethovision software that produced an activity analysis profile per frame for each well of the 96 well plates. Any dead embryos were removed from the data set, and the remaining data set was imported into Excel. […] The behavioral data was then statistically analyzed by drug per phase using a 2 tailed t-test to determine statistical significance p≤0.01.

[2] = system: larval zebrafish exposed to Pseudomonas aeruginosa 60 μg/mL lipopolysaccharide (LPS); assay: Zebrafish endotoxicity/sepsis model drug screening, statements without larval stage; type: in vivo, Danio rerio
Source text: To identify potential sepsis drug candidates, an optimized larval zebrafish model of endotoxicity/sepsis was used to screen commercial libraries of U.S. Food and Drug Administration (FDA)-approved drugs and other active pharmaceutical ingredients (API) known to affect pathways implicated in the initiation and progression of sepsis in humans (i.e., inflammation, mitochondrial dysfunction, coagulation, and apoptosis). In this model, endotoxicity was induced in 3- and 5-day post fertilization larval zebrafish (characterized by mortality and tail fin edema (vascular leakage)) by immersion exposure to Pseudomonas aeruginosa 60 μg/mL lipopolysaccharide (LPS) for 24 hours, then screened for the rescue potential of 644 selected drugs simultaneously with LPS at 10 μM. After LPS exposure, a neurobehavioral assay (light-dark test) was performed to further evaluate rescue from endotoxicity and to determine possible off-target drug side effects.

[3] = system: 3-dpf Zebrafish Embryos Challenged with LPS (P. aeruginosa 60 μg/mL); type: in vivo, Danio rerio; conditions: P. aeruginosa LPS 60 μg/mL, compound 10 μM; for Percent Rescue (Mort + Tail Edema): 3-dpf embryos, n=16; for Percent Rescue (Mort + Tail Edema) / rescue of tail edema and mortality (sepsis rescue rate) at 3-dpf: 24 hours; for 3 dpf Embryos Percent Rescue (Mort + Tail Edema): initial 3-dpf screen shown for reference
Procedure, shortened: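 3-dpf PTU-treated AB zebrafish embryos exposed to 60 μg/mL P. aeruginosa LPS plus 10 μM compound (final) at 28.5 °C, n=16 per compound. Tail edema and mortality scored at 6 and 24 h post exposure; rescue judged against LPS-only controls at 24 h.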

[4] = system: 5-dpf zebrafish larvae challenged with P. aeruginosa LPS 60 μg/mL; type: in vivo, Danio rerio; conditions: compound 10 μM; for 5 dpf Embryos Percent Rescue (Mort + Tail Edema): 5-dpf larvae
[5] = system: zebrafish (4 dpf pre-treated, LPS exposure at 5-dpf) challenged with P. aeruginosa LPS 60 μg/mL; type: in vivo, Danio rerio; conditions: for Pre-Treatment Rescue (n = 16): 24-hour drug pre-treatment; for Pre-Treatment Rescue (n = 16) / No Pre-Treatment Rescue (n = 16): P. aeruginosa LPS 60 μg/mL; for No Pre-Treatment Rescue (n = 16): no 24-hour drug pre-treatment; for 24 hour Tail Edema, No-Drug Pretreatment / 24 Hour Mortality and Tail Edema, Drug Pretreatment / 24 Hour Mortality, Drug Pretreatment / 24 hour Tail Edema, Drug Pretreatment / 24 Hour Mortality and Tail Edema, No-Drug Pretreatment / 24 Hour Mortality, No Drug Pretreatment: number of n = 16 fish; for 24 hour Tail Edema, No-Drug Pretreatment: 10 μM drug with LPS 60 μg/mL; for 24 hour Tail Edema, No-Drug Pretreatment / 24 Hour Mortality and Tail Edema, No-Drug Pretreatment / 24 Hour Mortality, No Drug Pretreatment: no 24-hour pre-treatment; for 24 Hour Mortality and Tail Edema, Drug Pretreatment / 24 Hour Mortality, Drug Pretreatment: 24-hour 10 μM drug pre-treatment; for 24 hour Tail Edema, Drug Pretreatment: 24-hour 10 μM drug pre-treatment before LPS 60 μg/mL
Procedure, shortened: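 PTU-treated 4 dpf zebrafish embryos received a 24-hour drug pre-treatment at 28.5 °C, alongside an untreated parallel group, before challenge at 5 dpf with P. aeruginosa LPS at 60 μg/mL. Tail edema and mortality were scored at 6 and 24 h post exposure, followed by a neurobehavioral test.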

[6] = system: 5-dpf zebrafish challenged with K. Pneumoniae LPS (45 μg/mL); assay: Challenge with K. Pneumoniae LPS (45 μg/mL), 5-dpf zebrafish; type: in vivo, Danio rerio
Procedure: These tests followed the same methods described in the 5-dpf zebrafish confirmatory testing, but K. Pneumoniae LPS (45 μg/mL final in well concentration) was used instead of P. aeruginosa LPS.

[7] = molecular target: hERG potassium ion channel current (IhERG) (Homo sapiens, UniProt Q12809); conditions: cited from earlier work
[8] = system: larval zebrafish locomotor behavior; type: in vivo
Source text: This assay is a modified version of the larval zebrafish light dark transition assay with an added UV light (wavelength=295 nm) phase to capture any compound specific neurological effects to UV light. (Basnet et al., 2019, Kokel et al., 2013, Peng et al., 2016). The light period assesses deviations from normal locomotor behavior while the rapid transition to dark provides a measure of stress response by identifying any deviations from the normal heightened locomotor activity caused by the transition to dark. The neurobehavioral assay used a custom trial control script created by Noldus Ethovision XT 15, and it was executed in a Noldus DanioVision system. Zebrafish larvae in microplates were allowed to habituate in the DanioVision system for 5 minutes under white light conditions prior to the start of the test. The neurobehavioral assay consisted of three phases: a 3-minute light phase (white light), a 3-minute dark phase (no light) and a 5 second UV phase (UV light only). The Danio Vision system captured larval zebrafish movement throughout this assay at 30 frames per second.
as §1, with “Excel. The offset function in Excel was used to average the percentage of pixel change per 0.1 s for each plate.” for “Excel.”

human recombinant 5-HT2A = human recombinant 5-HT2A (Homo sapiens, UniProt P28223); conditions: cited from earlier work
human recombinant 5-HT2C = molecular target: T1, human recombinant 5-HT2C (Homo sapiens, UniProt P28335); conditions: cited from earlier work
T1 sequence (P28335 33-458): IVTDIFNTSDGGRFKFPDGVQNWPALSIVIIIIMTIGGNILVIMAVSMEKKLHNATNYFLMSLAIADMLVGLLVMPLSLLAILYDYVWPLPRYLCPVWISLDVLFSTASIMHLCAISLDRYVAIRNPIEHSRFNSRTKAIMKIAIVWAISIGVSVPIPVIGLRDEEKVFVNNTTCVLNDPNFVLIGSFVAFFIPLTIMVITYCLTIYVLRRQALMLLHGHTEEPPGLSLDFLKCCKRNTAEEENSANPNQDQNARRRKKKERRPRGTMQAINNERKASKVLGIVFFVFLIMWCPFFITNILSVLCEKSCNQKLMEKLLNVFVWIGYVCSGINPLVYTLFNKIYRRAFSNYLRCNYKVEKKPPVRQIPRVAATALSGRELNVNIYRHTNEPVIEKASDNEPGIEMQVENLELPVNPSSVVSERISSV

5-HT2B = 5-HT2B (Homo sapiens, UniProt P41595); conditions: cited from earlier work
Sequence of 5-HT2B (P41595 whole entry): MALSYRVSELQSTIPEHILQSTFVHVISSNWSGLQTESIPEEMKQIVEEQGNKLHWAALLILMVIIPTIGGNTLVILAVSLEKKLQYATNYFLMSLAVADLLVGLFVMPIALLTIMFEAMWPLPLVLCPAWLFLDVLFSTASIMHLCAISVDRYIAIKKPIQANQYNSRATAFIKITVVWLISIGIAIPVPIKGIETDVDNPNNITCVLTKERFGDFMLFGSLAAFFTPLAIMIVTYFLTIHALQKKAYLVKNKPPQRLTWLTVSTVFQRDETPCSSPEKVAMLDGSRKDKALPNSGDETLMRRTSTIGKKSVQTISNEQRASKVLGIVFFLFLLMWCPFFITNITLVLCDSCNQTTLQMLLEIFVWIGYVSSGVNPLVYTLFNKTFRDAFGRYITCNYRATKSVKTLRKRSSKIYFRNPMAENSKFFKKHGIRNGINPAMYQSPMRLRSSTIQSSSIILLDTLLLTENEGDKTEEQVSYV

Sequence of D2 receptor (P14416 whole entry): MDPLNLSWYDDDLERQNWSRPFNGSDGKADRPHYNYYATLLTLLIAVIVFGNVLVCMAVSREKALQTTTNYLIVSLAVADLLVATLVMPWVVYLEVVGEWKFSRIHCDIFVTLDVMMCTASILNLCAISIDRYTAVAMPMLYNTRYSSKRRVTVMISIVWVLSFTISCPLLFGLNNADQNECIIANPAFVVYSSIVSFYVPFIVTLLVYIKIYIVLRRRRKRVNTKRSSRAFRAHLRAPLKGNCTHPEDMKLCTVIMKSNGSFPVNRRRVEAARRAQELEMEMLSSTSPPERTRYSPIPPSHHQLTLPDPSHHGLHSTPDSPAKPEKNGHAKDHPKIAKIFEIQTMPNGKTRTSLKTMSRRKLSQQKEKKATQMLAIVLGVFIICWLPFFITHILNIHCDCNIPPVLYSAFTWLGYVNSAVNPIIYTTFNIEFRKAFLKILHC
Sequence of human recombinant 5-HT2A (P28223 whole entry): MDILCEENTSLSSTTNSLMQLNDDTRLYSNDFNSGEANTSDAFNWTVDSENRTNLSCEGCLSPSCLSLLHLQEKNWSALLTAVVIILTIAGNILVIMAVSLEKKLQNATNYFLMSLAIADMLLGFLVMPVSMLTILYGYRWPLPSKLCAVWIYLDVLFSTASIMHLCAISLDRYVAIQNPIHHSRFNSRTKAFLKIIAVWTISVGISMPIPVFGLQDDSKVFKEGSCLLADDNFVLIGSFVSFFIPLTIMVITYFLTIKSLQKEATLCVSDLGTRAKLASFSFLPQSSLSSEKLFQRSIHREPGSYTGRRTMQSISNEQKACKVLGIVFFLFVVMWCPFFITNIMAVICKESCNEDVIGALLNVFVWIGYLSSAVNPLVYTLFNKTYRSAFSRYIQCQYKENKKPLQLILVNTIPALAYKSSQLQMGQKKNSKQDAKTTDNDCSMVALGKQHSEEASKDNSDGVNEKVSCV
Sequence of hERG potassium ion channel current (IhERG) (Q12809 whole entry): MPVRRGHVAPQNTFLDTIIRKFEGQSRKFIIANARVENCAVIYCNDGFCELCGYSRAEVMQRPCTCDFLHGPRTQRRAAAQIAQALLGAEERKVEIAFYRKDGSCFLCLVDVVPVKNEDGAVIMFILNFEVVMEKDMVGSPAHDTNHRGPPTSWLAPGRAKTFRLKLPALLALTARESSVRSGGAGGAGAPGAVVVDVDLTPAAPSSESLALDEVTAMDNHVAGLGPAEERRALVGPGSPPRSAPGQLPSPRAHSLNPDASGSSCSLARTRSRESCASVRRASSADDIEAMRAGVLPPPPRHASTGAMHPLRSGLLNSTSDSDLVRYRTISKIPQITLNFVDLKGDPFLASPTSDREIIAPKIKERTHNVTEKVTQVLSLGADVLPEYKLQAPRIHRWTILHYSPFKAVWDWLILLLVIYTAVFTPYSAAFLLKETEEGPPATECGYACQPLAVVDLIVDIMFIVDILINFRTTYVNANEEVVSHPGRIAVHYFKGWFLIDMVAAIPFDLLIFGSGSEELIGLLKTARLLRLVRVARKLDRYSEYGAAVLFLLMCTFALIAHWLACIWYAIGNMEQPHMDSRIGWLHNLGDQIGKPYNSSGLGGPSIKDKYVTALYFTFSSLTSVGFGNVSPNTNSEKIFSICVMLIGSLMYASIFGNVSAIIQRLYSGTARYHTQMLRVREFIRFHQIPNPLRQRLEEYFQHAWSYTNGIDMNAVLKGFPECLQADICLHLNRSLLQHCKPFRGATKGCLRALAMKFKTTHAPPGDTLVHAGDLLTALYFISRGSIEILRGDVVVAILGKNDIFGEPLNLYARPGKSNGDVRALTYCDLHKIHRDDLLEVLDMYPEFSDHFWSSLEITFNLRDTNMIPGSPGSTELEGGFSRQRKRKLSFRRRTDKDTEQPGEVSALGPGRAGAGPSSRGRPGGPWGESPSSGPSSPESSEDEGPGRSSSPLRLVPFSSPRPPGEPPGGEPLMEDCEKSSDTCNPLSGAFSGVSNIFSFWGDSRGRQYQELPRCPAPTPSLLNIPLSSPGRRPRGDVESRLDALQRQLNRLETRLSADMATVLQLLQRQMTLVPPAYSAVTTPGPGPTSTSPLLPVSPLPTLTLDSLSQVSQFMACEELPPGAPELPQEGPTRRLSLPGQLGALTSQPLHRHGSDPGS

| Structure (SMILES) | Percent Rescue (Mort + Tail Edema) [3] [%] | rescue of tail edema and mortality (sepsis rescue rate) at 3-dpf [3] [%] | 3 dpf Embryos Percent Rescue (Mort + Tail Edema) [3] [%] | 5 dpf Embryos Percent Rescue (Mort + Tail Edema) [4] [%] | rescue of tail edema and mortality (sepsis rescue rate) at 5-dpf [4] [%] | Pre-Treatment Rescue (n = 16) [5] [%] | No Pre-Treatment Rescue (n = 16) [5] [%] | 24 hour Tail Edema, No-Drug Pretreatment [5] [fish] | 24 Hour Mortality and Tail Edema, Drug Pretreatment [5] [fish] | 24 Hour Mortality, Drug Pretreatment [5] [fish] | 24 hour Tail Edema, Drug Pretreatment [5] [fish] | 24 Hour Mortality and Tail Edema, No-Drug Pretreatment [5] [fish] | 24 Hour Mortality, No Drug Pretreatment [5] [fish] | rescue of tail edema and mortality [6] [%] | also measured |
| --- | --- | --- | --- | --- | --- | --- | --- | --- | --- | --- | --- | --- | --- | --- | --- |
| CN1CCN(CCCN2c3ccccc3Sc3ccc(C(F)(F)F)cc32)CC1 [Trifluoperazine] | – | – | – | – | – | – | – | – | – | – | – | – | – | – | IC50 (D2 receptor): 0.0012 µM |
| C[C@]12CCC(=O)C=C1CC[C@@H]1[C@@H]2[C@@H](O)C[C@@]2(C)[C@H]1CC[C@]2(O)C(=O)CO [hydrocortisone] | – | – | – | – | – | – | – | – | – | – | – | – | – | – | efficacy (mortality) at 6 hours ([1]; 6 hours post LPS exposure): some efficacy noted; mortality at 24 hours post exposure ([1]; 24 hours post LPS exposure): increased mortality over no treatment; rescue at 6-hour exposure time point ([2]; 6-hour exposure time point): showed rescue early; rescue by 24 hours post exposure ([2]; 24 hours post exposure): failed to show any level of rescue |
| O=C(c1ccc(F)cc1)C1CCN(CCn2c(=O)[nH]c3ccccc3c2=O)CC1 [Compound 88, Ketanserin] | 100 | 100 | 100 | 81 | 81 | 100 | 100 | 0 | 0 | 0 | 0 | 0 | 0 | 88 | rescue of tail edema and mortality (sepsis rescue rate) at 5-dpf ([4]; listed as ketanserin): 100%; IC50 [7]: 0.11 µM |
| CCCCCNC(=N)N/N=C/c1c[nH]c2ccc(OC)cc12 [Compound 400, Tegaserod (maleate)] | 100 | 100 | 100 | 100 | 100 | 100 | 88 | 1 | 0 | 0 | 0 | 2 | 1 | 100 | light/dark neurobehavioral testing, difference from negative controls ([8]; after LPS exposure, with and without drug pre-treatment): little to no difference from negative controls; Post Test Behavioral Assay ([8]; after pre-treatment test LPS exposure): Normal; pKi 5-HT2A (human recombinant 5-HT2A): 7.5; pKi 5-HT2C (human recombinant 5-HT2C): 7.0; pKi 5-HT2B (5-HT2B): 8.4 |
